Data as given in patent US8877944B2, “3-oxo-2,3-dihydro-1H-isoindole-4-carboxamides as PARP inhibitors” (Nerviano Medical Sciences S.R.L., priority 2009, dated 2014).
Where two headings read alike, the source gives them in different places.

Tests used:
[1] = system: ovarian cancer with confirmed BRCA-1 mutations; details: ovarian cancer patients with confirmed BRCA-1 mutations, monotherapy; cited from earlier work
PARP-2 FL = PARP-2 FL (Homo sapiens (Human), UniProt Q9UGN5); assay: Fluorescence polarization probe displacement assay, PARP-2; assay type: binding
Procedure: (§1) Affinity evaluation of the tested compounds and their selectivity with respect to the different PARP isoforms of interest was assessed in a displacement assay.
(§2) The polarization signal can be measured, e.g., by a plate reader such as the Saphire2 (Tecan). The displacement ability of the test compound is in correlation with the compound affinity for the NAD pocket of the enzyme.
(§3) The assay performances were then evaluated (Z′ factor) as well as the displacement of the probe by its scaffold and known commercially available PARP inhibitors. In all of the experiments, the polarization signal was measured using a Saphire2 plate reader (Tecan). Data analysis was performed using Dynafit software. In particular, titration data were fitted to the following equilibria: Enzyme+probe <==> Complex Enzyme-probe, while displacement data were fitted to the following equilibria: Enzyme+probe <==> Complex Enzyme-probe, Enzyme+Compound <==> Complex Enzyme-Compound, whereby binding of probe and compound on the enzyme are mutually exclusive (pure competitive mechanism). Displacement data were also fitted using Excell spreadsheet (Microsoft Inc. Seattle, USA) to a four parameter logistic model (4PL), or Hill-Slope model to calculate DC50s where the DC50 value represents the compound concentration at which the polarization signal is diminished by 50% compared to untreated controls.
(§4) KD values, are the average of three independent experiments.

PARP-1 FL = PARP-1 FL (Homo sapiens (Human), UniProt P09874); assay: Fluorescence polarization probe displacement assay, PARP-1; assay type: binding; details: for DC50: half maximal displacement concentration
Procedure: as §1, §2, §3, §4

[2] = system: PAR formation in HeLa cells; assay: Cellular PAR assay: inhibition of hydrogen peroxide induced PAR formation; details: Homo sapiens, read-out: PAR assay IC50
Procedure: Compounds potencies were evaluated by measuring the inhibition of poly (ADP-ribose) (PAR) chains formation as a marker for PARP-1 inhibition.
Cellular activity of PARP-1 inhibitors was assessed by measuring the inhibition of the hydrogen peroxide induced PAR formation in HeLa cells (ECACC). Cellular PAR levels were measured by immunocytochemistry, and quantified using an ArrayScan vTi instrument (Cellomics Thermo Scientific).
Test compounds were then added at the required concentration for 30′. […] Concentration curves were prepared in MEM/10% FCS from compound stocks in DMSO, and final DMSO concentration was 0.002% (v/v). Duplicate wells for each concentration point were prepared with a typical highest compound concentration of 20 μM and serial dilution 1:3. […] Non-specific binding sites were blocked by incubating wells for 30 min in PBS containing 5% (w/v) FBS 0.05% tween20. […] After washing further 3 times in PBS, cellular PAR immunoreactivity was assessed using the ArrayScan vTi instrument, with a Zeiss 10×0.5 N.A. objective, and applying the Cytotoxicity.V3 algorithm (Cellomics/Thermo Fisher) with a XF100 filter. At least 10 fields, corresponding to at least 900 cells, were read for each well.
The following formula is used: IC50=Bottom+(Top-Bottom)/(1+10^((LogEC50−X))); X is the logarithm of concentration. IC50 is the response; IC50 starts at Bottom and goes to Top with a sigmoid shape.

PARP-3 FL = PARP-3 FL (Homo sapiens (Human), UniProt Q9Y6F1); assay: Fluorescence polarization probe displacement assay, PARP-3; assay type: binding; details: half maximal displacement concentration
Procedure: as §1, §2, §3, §4

[3] = Pharmacokinetics and oral bioavailability in the mouse; details: for C-max (oral): 10 mg/kg single oral dose, mean value; for F on AUC / Vd / clearance / AUC / half-life: 10 mg/kg; for F on AUC: oral vs IV dose-normalized AUC; for Vd / clearance / AUC / half-life: male, Balb Nu/Nu, plasma; for Vd / clearance: iv; for AUC / half-life: po
Procedure: The compounds were formulated in 10% tween 80/dextrose for intravenous bolus administration while oral administrations were performed using the compounds formulated in 0.5% methylcellulose. A single administration at the dose of 10 mg/kg was given and three male animals for each route were used. […] Plasma samples were prepared by plasma proteins precipitation adding 200 μL of methanol to 10 μL of plasma in a 96 well plate. […] The supernatant was considered as final extract and injected onto the LC-MS-MS system (HPLC system: Hewlett Packard 1100 series using Atlantis HILIC Silica 50*2.1 mm 5.0 μm analytical column; MS instrument: Perkin Elmer SCIEX API 2000 and ionization performed with Turbo Ion Spray in positive ion mode). Lower limit of quantification is 5.0 ng/mL, upper limit of quantification is 10000 ng/mL. […] Non-compartmental method (linear trapezoidal rule and linear regression analysis of natural log-transformed plasma concentrations vs. time data) was used. After intravenous dosing, C0 was set equal to C0.083 Absolute bioavailability (F) was calculated from the ratio of average oral to IV (intravenous) dose-normalized plasma AUC (area under curve) values.

[4] = system: Capan-1 human pancreatic cancer tumors; assay: In vivo efficacy, single agent, Capan-1 BRCA-2 mutated mouse model
Procedure: Fragments of Capan-1 human pancreatic cancer tumors were implanted subcutaneously. Mice bearing a palpable tumor (100-200 mm^3) were selected and randomized into control and treated groups. Each group included seven animals. The treatment started one day after randomization. Compound of formula (I) was administered by oral route as a methocel suspension at the indicated doses and times. Tumor dimension was measured regularly by calipers during the experiments and tumor mass was calculated as described in Simeoni M. et al., Cancer Res 64, 1094-1101 (2004).

[5] = read-out: PARP-2 DC50; half maximal displacement concentration
[6] = compound P3 as the probe, 100 nM PARP-1
[7] = half maximal displacement concentration; read-out: PARP-2 DC50
[8] = compound P1 as the probe, 250 nM PARP-1
[9] = 100 mg/kg oral, days 1-14 daily
[10] = 100 mg/kg oral, days 1-6 twice a day
[11] = 100 mg/kg oral, days 1-15 daily

Chain of PARP-1 FL (P09874 whole entry): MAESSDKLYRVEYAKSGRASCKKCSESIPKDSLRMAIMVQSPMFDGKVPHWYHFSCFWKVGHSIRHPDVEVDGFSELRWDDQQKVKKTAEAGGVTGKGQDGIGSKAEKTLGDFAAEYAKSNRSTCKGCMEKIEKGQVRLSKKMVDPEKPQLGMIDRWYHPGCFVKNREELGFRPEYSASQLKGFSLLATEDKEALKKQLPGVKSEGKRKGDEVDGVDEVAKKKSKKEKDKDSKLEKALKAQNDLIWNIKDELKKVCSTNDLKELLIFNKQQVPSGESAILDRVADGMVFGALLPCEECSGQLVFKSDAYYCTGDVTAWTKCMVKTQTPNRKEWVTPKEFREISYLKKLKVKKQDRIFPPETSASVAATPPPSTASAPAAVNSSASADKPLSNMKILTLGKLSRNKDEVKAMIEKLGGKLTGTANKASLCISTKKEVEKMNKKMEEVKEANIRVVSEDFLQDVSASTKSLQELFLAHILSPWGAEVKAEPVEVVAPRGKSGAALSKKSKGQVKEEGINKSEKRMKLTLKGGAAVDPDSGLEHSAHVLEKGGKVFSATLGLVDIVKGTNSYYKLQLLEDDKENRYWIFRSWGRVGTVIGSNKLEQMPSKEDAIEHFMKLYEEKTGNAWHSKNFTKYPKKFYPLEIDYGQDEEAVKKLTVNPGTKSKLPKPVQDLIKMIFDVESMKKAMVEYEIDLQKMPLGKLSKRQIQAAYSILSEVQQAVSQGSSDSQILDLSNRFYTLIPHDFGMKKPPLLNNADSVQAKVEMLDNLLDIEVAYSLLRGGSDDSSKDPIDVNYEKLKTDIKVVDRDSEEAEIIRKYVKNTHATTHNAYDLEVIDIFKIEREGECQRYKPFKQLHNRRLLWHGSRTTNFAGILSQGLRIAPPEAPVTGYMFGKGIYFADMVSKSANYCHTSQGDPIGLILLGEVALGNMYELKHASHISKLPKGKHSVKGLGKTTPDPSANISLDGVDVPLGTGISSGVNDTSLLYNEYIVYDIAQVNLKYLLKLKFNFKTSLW
Chain of PARP-2 FL (Q9UGN5 whole entry): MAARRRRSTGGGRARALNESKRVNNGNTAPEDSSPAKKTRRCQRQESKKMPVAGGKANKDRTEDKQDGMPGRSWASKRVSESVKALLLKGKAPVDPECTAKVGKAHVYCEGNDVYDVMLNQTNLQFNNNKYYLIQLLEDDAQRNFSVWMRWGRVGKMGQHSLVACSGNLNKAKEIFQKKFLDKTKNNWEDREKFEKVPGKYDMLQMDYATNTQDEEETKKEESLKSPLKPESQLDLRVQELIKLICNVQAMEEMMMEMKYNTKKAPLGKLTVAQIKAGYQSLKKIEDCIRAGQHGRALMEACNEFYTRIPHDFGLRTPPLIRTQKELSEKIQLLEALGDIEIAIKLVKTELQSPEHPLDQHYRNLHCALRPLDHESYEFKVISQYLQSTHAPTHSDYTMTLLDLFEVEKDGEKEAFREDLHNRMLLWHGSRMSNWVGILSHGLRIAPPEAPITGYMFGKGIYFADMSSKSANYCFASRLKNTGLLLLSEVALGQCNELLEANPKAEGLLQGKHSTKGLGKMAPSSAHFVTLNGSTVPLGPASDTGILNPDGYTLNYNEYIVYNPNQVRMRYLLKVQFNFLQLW
Chain of PARP-3 FL (Q9Y6F1 whole entry): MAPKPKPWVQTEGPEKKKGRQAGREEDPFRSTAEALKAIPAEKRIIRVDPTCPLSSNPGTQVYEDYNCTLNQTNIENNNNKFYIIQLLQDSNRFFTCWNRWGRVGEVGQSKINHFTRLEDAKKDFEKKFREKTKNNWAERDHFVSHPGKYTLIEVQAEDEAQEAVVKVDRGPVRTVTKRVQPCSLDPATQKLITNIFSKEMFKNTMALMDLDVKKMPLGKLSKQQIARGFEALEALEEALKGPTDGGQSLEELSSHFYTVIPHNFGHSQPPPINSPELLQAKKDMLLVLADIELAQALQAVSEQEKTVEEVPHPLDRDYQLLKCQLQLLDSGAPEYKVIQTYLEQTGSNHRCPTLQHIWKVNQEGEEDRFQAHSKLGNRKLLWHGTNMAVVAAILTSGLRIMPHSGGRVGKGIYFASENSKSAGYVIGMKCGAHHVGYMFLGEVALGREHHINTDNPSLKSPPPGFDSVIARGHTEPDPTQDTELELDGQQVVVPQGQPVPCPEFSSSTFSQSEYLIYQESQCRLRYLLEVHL

SMILES	DC50 (PARP-2 FL; [5]) [nM]	DC50 (PARP-1 FL) [nM]	IC50 [2] [nM]	DC50 (PARP-3 FL) [nM]	Kd (PARP-1 FL; [6]) [nM]	other results
O=C(c1cc(Cc2n[nH]c(=O)c3ccccc23)ccc1F)N1CCN(C(=O)C2CC2)CC1 [AZD2281]	–	–	–	–	–	partial responses [1]: 4 out of 10
CO[C@H]1CC[C@@H](N2CCC(N3Cc4cccc(C(N)=O)c4C3=O)CC2)CC1 [Compound 1, 2-[1-(Cis-4-methoxycyclohexyl)piperidin-4-yl]-3-oxo-2,3-dihydro-1H-isoindole-4-carboxamide]	> 10000	< 250	390	3700	60	–
NC(=O)c1cccc2c1C(=O)N(C1CCN([C@H]3CC[C@@H](CO)CC3)CC1)C2 [Compound 3, 2-{1-[Cis-4-(hydroxymethyl)cyclohexyl]piperidin-4-yl}-3-oxo-2,3-dihydro-1H-isoindole-4-carboxamide]	–	< 250	140	2300	13	DC50 (PARP-2 FL; [7]): > 10000 nM; C-max (oral) [3]: 1.17 µM; F on AUC [3]: 82.5%; Vd [3]: 4.75 L/kg; clearance [3]: 104 mL/min/kg; AUC [3]: 2.39 µM·h; half-life [3]: 1.75 h
NC(=O)c1cccc2c1C(=O)N(C1CCN([C@H]3CC[C@H](CO)CC3)CC1)C2 [Compound 4, 2-{1-[Trans-4-(hydroxymethyl)cyclohexyl]piperidin-4-yl}-3-oxo-2,3-dihydro-1H-isoindole-4-carboxamide]	–	< 250	90	4900	20	DC50 (PARP-2 FL; [7]): > 10000 nM; C-max (oral) [3]: 0.4 µM; F on AUC [3]: 55%; Vd [3]: 5.95 L/kg; clearance [3]: 135 mL/min/kg; AUC [3]: 1.3 µM·h; half-life [3]: 1.42 h
NC(=O)c1cccc2c1C(=O)N(C1CCN(C3CCC(F)(F)CC3)CC1)C2 [Compound 7, 2-[1-(4,4-Difluorocyclohexyl)-piperidin-4-yl]-3-oxo-2,3-dihydro-1H-isoindole-4-carboxylic acid amide]	–	–	–	3540	–	Max TGI (%) ([4]; 80 mg/kg oral, days 1-8 daily): 47%; Toxicity (body weight reduction, mice out of 7) ([4]; 80 mg/kg oral, days 1-8 daily): 0/7
NC(=O)c1cccc2c1C(=O)N(C1CCN(Cc3ccc4[nH]ccc4c3)CC1)C2 [Compound 29, 2-[1-(1H-indol-5-ylmethyl)piperidin-4-yl]-3-oxo-2,3-dihydro-1H-isoindole-4-carboxamide]	–	–	–	–	–	Max TGI (%) [4, 9]: 38%; Toxicity (body weight reduction, mice out of 7) [4, 9]: 0/7
CC(C)n1cc(CN2CCC(N3Cc4cccc(C(N)=O)c4C3=O)CC2)c2ccccc21 [Compound 32, 3-oxo-2-(1-{[1-(propan-2-yl)-1H-indol-3-yl]methyl}piperidin-4-yl)-2,3-dihydro-1H-isoindole-4-carboxamide]	–	< 250	380	270	40	DC50 (PARP-2 FL; [7]): > 10000 nM; C-max (oral) [3]: 0.43 µM; F on AUC [3]: 24%; Vd [3]: 2.78 L/kg; clearance [3]: 59.5 mL/min/kg; AUC [3]: 1.48 µM·h; half-life [3]: 1.84 h; Max TGI (%) [4, 10]: 32%; Toxicity (body weight reduction, mice out of 7) [4, 10]: 0/7
CC(C)Oc1ccc(CN2CCC(N3Cc4cccc(C(N)=O)c4C3=O)CC2)cc1 [Compound 44, 3-oxo-2-{1-[4-(propan-2-yloxy)benzyl]piperidin-4-yl}-2,3-dihydro-1H-isoindole-4-carboxamide]	> 10000	< 250	500	–	–	–
Cc1ccc(CN2CCC(N3Cc4cccc(C(N)=O)c4C3=O)CC2)s1 [Compound 45, 2-{1-[(5-Methylthiophen-2-yl)methyl]piperidin-4-yl}-3-oxo-2,3-dihydro-1H-isoindole-4-carboxamide]	> 10000	< 250	360	–	–	Kd (PARP-1 FL; [8]): < 30 nM
NC(=O)c1cccc2c1C(=O)N(CCCN1CCN(c3cccc(Cl)c3)CC1)C2 [Compound 46, 2-{3-[4-(3-Chloro-phenyl)-piperazin-1-yl]-propyl}-3-oxo-2,3-dihydro-1H-isoindole-4-carboxylic acid amide]	1460	< 250	400	–	–	–
NC(=O)c1cccc2c1C(=O)N(CC1CCN(Cc3ccc(F)cc3)CC1)C2 [Compound 51, 2-{[1-(4-Fluorobenzyl)piperidin-4-yl]methyl}-3-oxo-2,3-dihydro-1H-isoindole-4-carboxamide]	5680	< 250	160	–	–	Kd (PARP-1 FL; [8]): < 30 nM
NC(=O)c1cc(F)cc2c1C(=O)N(C1CCN(C3CCC(F)(F)CC3)CC1)C2 [Compound 99, 2-[1-(4,4-Difluorocyclohexyl)-piperidin-4-yl]-6-fluoro-3-oxo-2,3-dihydro-1H-isoindole-4-carboxamide]	–	–	–	1580	–	AUC [3]: 19.6 µM·h; Max TGI (%) [4, 11]: 55%; Toxicity (body weight reduction, mice out of 7) [4, 11]: 0/7
COCCN1CCC(N2Cc3cccc(C(N)=O)c3C2=O)CC1 [Compound 106, 2-[1-(2-Methoxyethyl)piperidin-4-yl]-3-oxo-2,3-dihydro-1H-isoindole-4-carboxamide]	> 10000	280	410	2550	–	Kd (PARP-1 FL; [8]): 110 nM

Now from value to molecule, other results behind:

DC50 (PARP-2 FL; [5]) [nM]	DC50 (PARP-1 FL) [nM]	IC50 [2] [nM]	DC50 (PARP-3 FL) [nM]	SMILES	Kd (PARP-1 FL; [6]) [nM]	other results
> 10000	< 250	160	6000	CO[C@H]1CC[C@H](N2CCC(N3Cc4cccc(C(N)=O)c4C3=O)CC2)CC1 [Compound 2, 2-[1-(Trans-4-methoxycyclohexyl)piperidin-4-yl]-3-oxo-2,3-dihydro-1H-isoindole-4-carboxamide]	25	–
> 10000	280	530	> 10000	NC(=O)c1cccc2c1C(=O)N(C1CCN(C3CCC4(CC3)OCCO4)CC1)C2 [Compound 8, 2-[1-(1,4-Dioxaspiro[4.5]dec-8-yl)piperidin-4-yl]-3-oxo-2,3-dihydro-1H-isoindole-4-carboxamide]	–	Kd (PARP-1 FL; [8]): 130 nM
> 10000	–	–	790	NC(=O)c1cc(Cl)cc2c1C(=O)N(C1CCN(C3CCC(F)(F)CC3)CC1)C2 [Compound 100, 2-[1-(4,4-Difluorocyclohexyl)-piperidin-4-yl]-6-chloro-3-oxo-2,3-dihydro-1H-isoindole-4-carboxamide]	–	–
> 10000	–	–	> 10000	NC(=O)c1ccc(F)c2c1C(=O)N(C1CCN(C3CCC(F)(F)CC3)CC1)C2 [Compound 101, 2-[1-(4,4-Difluorocyclohexyl)-piperidin-4-yl]-7-fluoro-3-oxo-2,3-dihydro-1H-isoindole-4-carboxamide]	–	–
3770	< 250	80	4670	NC(=O)c1cc(F)cc2c1C(=O)N(C1CCN(C3CCC(=O)CC3)CC1)C2 [Compound 103, 6-Fluoro-3-oxo-2-[1-(4-oxocyclohexyl)piperidin-4-yl]-2,3-dihydro-1H-isoindole-4-carboxamide]	< 10	–
> 10000	–	–	1080	NC(=O)c1cc(F)cc2c1C(=O)N(C1CCN(C3CCC(Cl)(Cl)CC3)CC1)C2 [Compound 105, 2-[1-(4,4-Dichlorocyclohexyl)piperidin-4-yl]-6-fluoro-3-oxo-2,3-dihydro-1H-isoindole-4-carboxamide]	–	–
